Results on eight compounds are retold here after patent publication US7521569B2, “Process to obtain dibenzylbutyrolactonic lignans, process to obtain synthetic derivatives from lignans bearing anti-Chagas chemoprophylactic and therapeutical activities” (Fundação De Amparo À Pesquisa Do Estado de São Paulo, priority 2002, dated 2009).

In the assay the test system is blood tripomastigote forms of different lines of Trypanosoma cruzi. As to the kind of experiment: Tripanocidal activity: percentual of lysis of blood tripomastigote forms in infected mouse blood. Type of assay: cell-based. The note with it: for killing at 25 µg/mL / killing at 50 µg/mL / IC50: Trypanosoma cruzi; for killing at 25 µg/mL: read-out: % lysis; for anti-Chagas activity: statement in words. On the procedure:
Evaluation of the tripanocidal activity was made by checking percentual of lysis from blood tripomastigote forms of different lines of Trypanosoma cruzi, isolated from […] of mice on the parasitemic peak. Biological essays have been made on 200 μl titration microplaques containing about […] forms of the parasite in each milliliter of used blood. Substance concentrations as used for evaluation were of 10, 25 and 50 μg/ml, which were solubilized under PBS buffer containing 5% dimethyl sulfoxide. After adding substances, infected blood has been incubated at 4° C. under constant shaking for a 24-hour period. After that period, the quantity of parasites surviving to the action of substances was counted in an optical microscope and in comparison to the negative control group (infected blood, adding the solution used to solubilized substances), calculations concerning the determination of lysis percentual have been made. As a positive control, gentian violet has been used under concentration of 250 μg/ml, as indicated for chemoprophylaxis. All essays have been made in triplicate.
The biological activity protocol as described above is already fully published and used in the scientific field, being therefore standardized regarding tripanocidal activity (chemoprophylaxis and susceptibility evaluation for the parasite).
Various scientific works using this method, which is even presented in the original evaluation work for the biological activity of cubebin, as published by Bastos and contributors in 1999.

Setting [1] is: 25 μg/ml, infected blood, 4° C., 24 h.
[2] abbreviates: 50 μg/ml, infected blood, 4° C., 24 h.
[3] abbreviates: lysis of blood tripomastigotes, 24 h at 4° C., read-out: IC50.

Molecules are shown by their SMILES. In brackets after ≈: the same amount, converted by molar mass. Like-named read-outs stand apart in the source and are kept apart here.

By IC50 is commonly meant the concentration that inhibits the measured activity by half. Regarding `COC1OC[C@H](Cc2ccc3c(c2)OCO3)[C@H]1Cc1ccc2c(c1)OCO2` (stereo partly drawn) [O-methyl cubebin, O-methyl Cubebin], the anti-Chagas activity entry was “bear anti-Chagas activity”. Moreover, the killing at 25 µg/mL under setting [1] is 13.9%. Also, the killing at 50 µg/mL under setting [2] was 62%. For the same compound, the IC50 under setting [3] came to 86.3 µg/mL (≈ 233 µM).

`CC(=O)OC1OC[C@H](Cc2ccc3c(c2)OCO3)[C@H]1Cc1ccc2c(c1)OCO2` (stereo partly drawn) [O-acetyl cubebin, O-acetyl Cubebin]: the anti-Chagas activity entry was “bear anti-Chagas activity”. In addition, under setting [2], the “% lysis” value was 50/100%. The killing at 25 µg/mL under setting [1] is 76.2%. In addition, the IC50 under setting [3] was determined as 16.9 µg/mL (≈ 42.4 µM).

Turning to `COc1ccc(C[C@H]2C(=O)OC[C@@H]2Cc2ccc3c(c2)OCO3)cc1OC` [Metilpluviatolide, methylpluviatolide], the anti-Chagas activity entry was “bear anti-Chagas activity”. In addition, the “% lysis” value under setting [2] is recorded as 50/100%. Under “24 h”, the midpoint of inhibition, the IC50, lay at 1.3 µg/mL (≈ 3.51 µM) and the killing at 25 µg/mL is 99%.

In the case of `O=C1OC[C@H](Cc2ccc3c(c2)OCO3)[C@H]1Cc1ccc2c(c1)OCO2` [Hinokinin], the anti-Chagas activity result is reported as “bear anti-Chagas activity”. The killing at 25 µg/mL under setting [1] amounted to 80.1%. Under setting [2], this compound gave a killing at 50 µg/mL of 95.4%. For the same compound, the IC50 under setting [3] turned out to be 0.9 µg/mL (≈ 2.54 µM).

As for `CN(C)CCOC1OC[C@H](Cc2ccc3c(c2)OCO3)[C@H]1Cc1ccc2c(c1)OCO2` (single isomer, unassigned; (-)) [O-dimethylethylamine cubebin, (−)-O-dimethylethylamine-cubebin], the anti-Chagas activity result is “bear anti-Chagas activity”. Moreover, the “% lysis” value under setting [2] is listed as 50/100%. The killing at 25 µg/mL under setting [1] stood at 90.1%. Under setting [3], the IC50 turned out to be 3 µg/mL (≈ 7.02 µM).

In the case of `OC1OC[C@H](Cc2ccc3c(c2)OCO3)[C@H]1Cc1ccc2c(c1)OCO2` (stereo partly drawn) [Cubebin, cubebin], the anti-Chagas activity result is reported as “bear anti-Chagas activity”. Besides, the killing at 25 µg/mL under setting [1] was determined as 7.3%. Under setting [2], this compound showed a killing at 50 µg/mL of 52.3%. Further, under setting [3], the IC50 worked out at 97.6 µg/mL (≈ 274 µM).

With `CN(C)c1ccc(C(=C2C=CC(=[N+](C)C)C=C2)c2ccc(N(C)C)cc2)cc1` [Gentian violet, gentian violet, reference compound], the “% lysis” value (250 μg/ml (positive control), infected blood, 4° C., 24 h) was 250/100%. Further, the IC50 under setting [3] stood at 76 µg/mL.

As for `O=C1OC[C@H](Cc2cc3c(cc2[N+](=O)[O-])OCO3)[C@H]1Cc1cc2c(cc1[N+](=O)[O-])OCO2` [6,6′-Dinitrohinokinin, 6, 6′-Dinitrohinokinin], the anti-Chagas activity entry was “bear anti-Chagas activity”. Besides, the killing at 25 µg/mL (24 h) came out at 57.6%. Further, the killing at 50 µg/mL under setting [2] came out at 82.8%. Further, the IC50 under setting [3] was 37.1 µg/mL (≈ 83.5 µM).
